Results published in patent US9351982B2, “Krill oil and reacted astaxanthin composition and associated method” (U.S. Nutraceuticals, LLC, priority 2009, dated 2016).

Legend:
[1] = tested on: lipid peroxidation; settings: relative to alpha-tocopherol; in vitro and in vivo studies; cited from earlier work
[2] = tested on: LDL cholesterol oxidation; settings: cited from earlier work
[3] = tested on: C-Reactive Protein (C-RP); settings: cited from earlier work
[4] = tested on: pro-oxidant activity of Vioxx; settings: in vitro; cited from earlier work
[5] = cited from earlier work
[6] = tested on: lens epithelial cells; settings: in vitro, at umol/L concentrations; cited from earlier work
[7] = cited from earlier work; remark: listed apart in the source
[8] = Stability of carotenoids blended with krill oil, UV analysis; format: physicochemical
Source text: Testing has determined that astaxanthin added to krill oil results in an unstable product with respect to recoverable astaxanthin by HPLC analysis. A chemical reaction most likely takes place between krill oil and at least astaxanthin in such mixtures. […] Had UV alone been used to determine product stability the decrease in recoverable astaxanthin over time would not have been observed. The test results, tables and charts of FIGS. 2-6 show the decrease in recoverable astaxanthin over time.
FIG. 2 is a chart showing data of astaxanthin at 13 days post formulation reacting with krill oil, but essentially neither lutein nor zeaxanthin. Astaxanthin is a keto-alcohol while lutein and zeaxanthin are alcohols and this can possibly make some difference. It should also be understood that the krill oil and “reacted” carotenoids, such as astaxanthin, and possibly zeaxanthin and lutein, lose their ability to be recovered over time from the mixture but can still be quantitated by ultraviolet (UV) analysis. For example, the chromophores of the carotenoids are not destroyed when the reaction takes place over time and can be used to develop a number of products useful for cardiovascular applications, joint health care applications, eye care and other diseases.
Referring now to the chart in FIG. 2, there are shown various samples and explanation. […]

[9] = eight weeks of supplementation at 6 mg per day; cited from earlier work

CC1=C(/C=C/C(C)=C/C=C/C(C)=C/C=C/C=C(C)/C=C/C=C(C)/C=C/C2=C(C)C(=O)[C@@H](O)CC2(C)C)C(C)(C)C[C@H](O)C1=O [astaxanthin]
mean effective concentration which inhibits lipid peroxidation, times lower than that of alpha-tocopherol [1]: 500 times
protection of LDL cholesterol against induced in vitro oxidation ([2]; 3.6 mg per day for two weeks): protects LDL cholesterol against induced in vitro oxidation
reduction of LDL cholesterol oxidation ([2]; 4 mg per day for two weeks): 26%
decrease in C-reactive protein scores ([3]; 4 mg for eight weeks): 21%
drop in serum C-RP levels ([3]; human subjects with high risk levels of C-RP, three months of treatment): 43%
negation of pro-oxidant activity of Vioxx [4]: negate the pro-oxidant activity of Vioxx
potency in quenching singlet oxygen, times more potent than alpha-tocopherol ([5]; relative to alpha-tocopherol): 550 times
potency in quenching singlet oxygen, times more potent than beta-carotene ([5]; relative to beta-carotene): 11 times
potency in quenching singlet oxygen, times more potent than lutein ([5]; relative to lutein): 27.5 times
suppression of UVB induced lipid per-oxidative mediated cell damage [6]: suppresses UVB induced lipid per-oxidative mediated cell damage
potency in scavenging oxygen free radicals, times more potent than alpha-tocopherol ([7]; relative to alpha-tocopherol): 14 times
potency in scavenging oxygen free radicals, times more potent than ascorbic acid (Vitamin C) ([7]; relative to ascorbic acid): 65 times
potency in scavenging oxygen free radicals, times more potent than beta-carotene ([7]; relative to beta-carotene): 54 times
UV quantification of the amount of astaxanthin added to blended product [8]: ~100%
negative effect in healthy adults [9]: no negative effect
